Measurements from patent US11446270B2, “Leonurine crystal and use thereof in preparation of insulin sensitizer, hypoglycemic drug and lipid-lowering drug” (ZHUHAI HENGQIN NEW DISTRICT ZHONGZHU ZHENGTAI MEDICAL …, priority 2017, dated 2022).
Entries after “also recorded” stand apart in the source; their conditions may differ.

What was measured:
[1] = Hygroscopicity, dynamic vapor sorption (DVS), 0-95% RH; type: physicochemical; details: for hygroscopicity (in words) / change of crystal form: range of 0-95% relative humidity
Procedure: Dynamic vapor sorption (DVS) method, instrument model: SMS DVS Intrinsic, 0˜95% RH, temperature: 25° C.; FTIR method, instrument model: Nicolet 6700, sectral range: 4000˜400 cm^−1, resolution ratio: 4 cm^−1, scanning times: 32, the infrared spectra of the samples were determined by KBr pressed-disk technique method, temperature: 25° C.;
In this invention, it is named as leonurine crystal form A, which is monohydrate crystal form, square block crystal (as shown in FIG. 13), no crystal transformation before melting, dehydrates at 120˜150° C. and transform into anhydrous crystal form B, and decomposes at about 250° C. […] Under the condition of, in the suspension experiment at 25° C., in methanol, ethanol, isopropanol, acetone, acetonitrile, tetrahydrofuran, nitromethane, ethyl acetate, isopropyl acetate, isoamyl alcohol, methyl tert-butyl ether, toluene, methyl isobutyl ketone, n-hexane, n-heptane, ether, dichloromethane, chloroform, petroleum ether, water and other solvents; and under the condition of, in the suspension experiment at 50° C., in methanol, ethanol, acetone, methyl ethyl ketone, isopropyl acetate, methyl tert-butyl ether, toluene, n-hexane, n-heptane, diethyl ether, chloroform, petroleum ether, water and other solvents; and under most solvent conditions in suspension and volatilization of mixed solvents at 25° C. and 50° C., form A can be obtained. […] In a range of 0˜95% RH, the dehydration and water absorption behavior of the crystal form is very weak.

[2] = Accelerated stability test of leonurine crystal forms; type: physicochemical; details: for Crystal stability: 70% RH, 10 days
Description: In the invention, the dominant medicinal crystal form was also screened by the accelerated stability experimental method, and observed the transformation among the various crystal forms.

[3] = Chronic administration for 3 weeks, body weight of rats; type: in vivo, rat; details: fourth week (one week after discontinuation), vs solvent control, listed as leonurine crystal form A
Procedure: (§1) Forty male Sprague-Dawley rats weighed 180 to 220 g were randomly divided into 4 groups (10 rats each group): control group are treated with equal volume of DMSO, and the treatment groups were administered at 30 mg/kg per day, 60 mg/kg per day, and 120 mg/kg per day of leonurine crystal form A respectively, where leonurine crystal form A was dissolved in DMSO at concentrates of 30 mg/ml, 60 mg/ml and 120 mg/ml, and the volume of vehicle administered intragastrically in each rat was 1 ml per kg of body weight. The rats were treated with leonurine crystal form A or DMSO once a day continuously for 3 weeks, and the body weight and fasting blood-glucose were detected at third week. The rats were fasted (allowed water ad libitum) for 12 h before experiment. Fasting blood-glucose and body weight were tested after 1 h of administered drugs. The rats were not given drugs on the next days for one week, and the body weight and fasting blood-glucose were detected at forth week. The data were analyzed by SPSS statistical software (version 11.5), and results were expressed as the mean±standard error of the mean (mean±SEM). Multiple group comparisons were tested by one-way analysis of variance (ANOVA). P<0.05 was considered as statistically significant.

[4] = test system: Sprague-Dawley rats; test: Chronic administration for 3 weeks, fasting blood glucose of rats; type: in vivo, rat; details: vs solvent control, listed as leonurine crystal form A
Procedure: as §1

[5] = test system: Sprague-Dawley male rats; test: Chronic continuous administration for 7 days, insulin sensitivity test in rats; type: in vivo; details: rat, vs control, listed as leonurine crystal form A
Procedure: Twenty Sprague-Dawley male rats (body weight 180-220 g) were randomly divided into 4 groups, give control solvent and three different doses of leonurine crystal form A respectively. The control solvent group was given an equal volume of DMSO, and the treatment groups were administered at three doses of 30 mg/kg, 60 mg/kg and 120 mg/kg respectively, 5 rats per group, where the leonurine crystal form A was dissolved in DMSO at concentrations of 30 mg/ml, 60 mg/ml and 120 mg/ml respectively. The volume of solvent used per rat is one millilitre per kilogram of body weight. The rats were administered intragastrically with the drugs or control solvent once a day for 7 consecutive days, and performing insulin sensitivity test on the 7th day. The rats were treated with the drugs or control solvent on the day of the test, and weighed before administration, then taking blood from tail vein to measure blood glucose. Each rat was tested for insulin sensitivity 1 hour after administration of the drugs or control solvent, and the rats were not fed food for 4 hours before the insulin sensitivity test to make them fasted but still given water. The insulin dose in the insulin sensitivity test is 0.75 units per kilogram of body weight, and insulin was injected through intraperitonealion. Blood glucose was measured before injection and at 15, 30, 60, 90, and 120 minutes after injection. The data were analyzed by SPSS statistical software (version 11.5), and the results were expressed as mean ±standard error of the mean (mean±SEM). Multiple group comparisons were tested by one-way analysis of variance (ANOVA). P<0.05 was considered as statistically significant.

[6] = previous toxicological study; cited from earlier work
[7] = test system: rhesus monkey; test: Model of rhesus monkey with hyperlipidemia, long-term administration; type: in vivo
[8] = listed as leonurine crystal form A
[9] = 40° C., relative humidity 60%-80%, 10-day stability test, listed as leonurine crystal form A

- hygroscopicity, water absorption ([1]; 60% RH): 60% RH, water absorption 0.07%
- hygroscopicity, water absorption ([1]; 80% RH): 80% RH, water absorption 0.12%
- hygroscopicity (in words) [1]: no or almost no hygroscopicity
- change of crystal form ([1]; listed as Crystal Form A): didn't change
- hygroscopicity (in words) ([1]; listed as Crystal Form A): no or almost no hygroscopicity
- change of crystal form [1, 8]: does not change
- hygroscopicity (in words) [1, 8]: no or almost no hygroscopicity
- moisture absorption ([1]; relative humidity from 0 to 95%): about 0.15%
- Crystal stability ([2]; 40° C.): remain unchanged
- Crystal stability ([2]; 40° C., listed as A): stable
- crystal transformation behavior [2, 9]: no crystal transformation behavior
- hygroscopicity (in words) [2, 9]: not obvious
- stability in accelerating experiments ([2]; 40° C./75% RH): most stable
SMILES: COc1cc(C(=O)OCCCCNC(=N)N)cc(OC)c1O [crystal form A, 4-guanidino-1-butyl 4-hydroxy-3,5-dimethoxybenzoate]
- weight of rats ([3]; 60 mg/kg/d for 3 weeks): significantly reduced; also recorded: significantly decreased
- weight of rats ([3]; 120 mg/kg/d for 3 weeks): had not statistically difference; also recorded: not statistically significant
- fasting blood glucose of rats ([4]; 60 mg/kg/d for 3 weeks, fourth week): significantly reduced; also recorded: decreased fasting blood glucose
- fasting blood glucose of rats ([4]; 60 mg/kg/d, after 3 weeks of continuous administration): had not statistically difference; also recorded: not statistically significant
- fasting blood glucose of rats ([4]; 120 mg/kg/d for 3 weeks, fourth week): significantly reduced; also recorded: decreased fasting blood glucose
- fasting blood glucose of rats ([4]; 120 mg/kg/d, after 3 weeks of continuous administration): significant reduce; also recorded: significantly decreased
- insulin sensitivity curve ([5]; 30 mg/kg/d for 7 days, 30 minute time point, 30 mg/kg/day): increased insulin sensitivity; also recorded: decreased significantly
- insulin sensitivity curve ([5]; 30 mg/kg/d for 7 days, 60 minute time point, 30 mg/kg/day): increased insulin sensitivity; also recorded: decreased significantly
- insulin sensitivity curve ([5]; 30 mg/kg/d for 7 days, 90 minute time point, 30 mg/kg/day): increased insulin sensitivity; also recorded: decreased significantly
- insulin sensitivity curve ([5]; 60 mg/kg/d for 7 days, 30 minute time point, 60 mg/kg/day): increased insulin sensitivity; also recorded: decreased significantly
- insulin sensitivity curve ([5]; 60 mg/kg/d for 7 days, 60 minute time point, 60 mg/kg/day): increased insulin sensitivity; also recorded: decreased significantly
- insulin sensitivity curve ([5]; 60 mg/kg/d for 7 days, 90 minute time point, 60 mg/kg/day): increased insulin sensitivity; also recorded: decreased significantly
- insulin sensitivity curve ([5]; 120 mg/kg/d for 7 days, 60 minute time point, 120 mg/kg/day): increased insulin sensitivity; also recorded: decreased significantly
- toxicity [6]: very low
- low-density lipoprotein (LDL-C) [7]: decreasing
- total cholesterol (TC) [7]: decreasing
